Laboratory results from PMC3038857, “Using Nuclear Receptor Activity to Stratify Hepatocarcinogens” (PLoS ONE, 2011).

What was measured:
[1] = target: T1, ERa (ESR1) (Homo sapiens, UniProt P03372); assay: NCGC_ERalpha_Antagonist: GAL4 BLAM Reporter gene assay: ERa; type: cell-based; settings: antagonist mode
T1 construct: expressed in transfected cells; host or cells: HEK293

[2] = system: Rat Liver; settings: chronic study, rat liver; ref ToxRefDB; cited from earlier work
[3] = target: T2, PXR (NR1I2) (Homo sapiens, UniProt O75469); assay: ATG_PXRE_CIS: Factorial reporter gene assay (HepG2); type: cell-based; design: endogenous in cells; host or cells: HepG2
T2 sequence (O75469 1-434): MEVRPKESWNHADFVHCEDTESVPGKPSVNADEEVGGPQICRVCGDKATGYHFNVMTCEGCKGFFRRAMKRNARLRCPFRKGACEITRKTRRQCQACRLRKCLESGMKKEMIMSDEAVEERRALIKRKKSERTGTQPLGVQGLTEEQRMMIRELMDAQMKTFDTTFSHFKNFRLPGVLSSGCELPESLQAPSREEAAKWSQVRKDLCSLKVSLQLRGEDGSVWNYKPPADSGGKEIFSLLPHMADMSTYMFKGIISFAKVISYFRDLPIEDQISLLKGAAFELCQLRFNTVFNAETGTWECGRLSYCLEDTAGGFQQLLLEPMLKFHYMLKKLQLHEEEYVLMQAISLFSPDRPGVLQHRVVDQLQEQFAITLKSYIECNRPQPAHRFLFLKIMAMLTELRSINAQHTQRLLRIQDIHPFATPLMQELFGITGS
Procedure, shortened: (§1)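 CIS (PXRE): HepG2 transfected with 48 TF-binding-site MRTU library. TRANS (ERRg, FXR, PPARg): one-hybrid format, extra 25 nuclear-receptor MRTUs. 7 concs, top = MTC, 3-fold serial dilution.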

[4] = system: Rat Liver; settings: chronic study, rat liver; ref ToxRefDB; cited from earlier work; remark: listed apart in the source
[5] = target: T3, CAR (NR1I3) (Homo sapiens, UniProt Q14994); assay: ATG_PBREM_CIS: Factorial reporter gene assay (HepG2); type: cell-based; design: endogenous in cells; host or cells: HepG2; settings: HepG2 reporter
T3 sequence (Q14994 1-352): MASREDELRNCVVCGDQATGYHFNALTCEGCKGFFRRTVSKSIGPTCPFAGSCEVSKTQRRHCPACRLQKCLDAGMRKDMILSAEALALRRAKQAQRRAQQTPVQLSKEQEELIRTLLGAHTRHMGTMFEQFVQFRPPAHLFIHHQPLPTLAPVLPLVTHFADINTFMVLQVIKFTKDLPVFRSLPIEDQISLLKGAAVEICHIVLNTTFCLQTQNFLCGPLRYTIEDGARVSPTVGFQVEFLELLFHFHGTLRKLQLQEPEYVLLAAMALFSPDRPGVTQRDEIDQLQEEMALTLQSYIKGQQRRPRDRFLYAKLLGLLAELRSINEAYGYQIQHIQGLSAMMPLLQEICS
Method: (§2) A multiple reporter transcription unit (MRTU) library consisting of 48 transcription factor binding sites was transfected into the HepG2 human liver hepatoma cell line. In addition to the cis-acting reporter genes (CIS), a modification of the approach was used to generate a trans-system (TRANS) with a mammalian one-hybrid assay consisting of an additional 25 MRTU library reporting the activity of nuclear receptor super-family members. […] These assays were performed by Attagene Inc. (Morrisville NC) under contract to EPA.
(§3) In addition to the cis-acting reporter genes (CIS), a modification of the approach was used to generate a trans-system (TRANS) with a mammalian one-hybrid assay consisting of an additional 25 MRTU library reporting the activity of nuclear receptor super-family members. […] Chemicals were then tested in the CIS and TRANS assays at seven concentrations starting at the MTC and followed by three-fold serial dilutions. These assays were performed by Attagene Inc. (Morrisville NC) under contract to EPA. Detailed description of the methods, data and analysis methods for this dataset will be presented in a separate publication.

[6] = target: T4, ESR1 (estrogen receptor 1) (Homo sapiens, UniProt P03372); assay: ATG_ERE_CIS: Factorial reporter gene assay (HepG2); type: cell-based; settings: HepG2 reporter
T4 construct: expressed in transfected cells; host or cells: HepG2
Method: as §2, §3

[7] = target: T4, ESR1 (estrogen receptor 1); assay: ATG_ERa_TRANS: Factorial reporter gene assay (HepG2); type: cell-based; settings: HepG2 reporter
Method: as §2, §3

[8] = target: T5, PPARG (peroxisome proliferator-activated receptor gamma) (Homo sapiens, UniProt P37231); assay: ATG_PPARg_TRANS: Factorial reporter gene assay (HepG2); type: cell-based; settings: HepG2 reporter
T5 construct: expressed in transfected cells; host or cells: HepG2
T5 sequence (P37231 1-505): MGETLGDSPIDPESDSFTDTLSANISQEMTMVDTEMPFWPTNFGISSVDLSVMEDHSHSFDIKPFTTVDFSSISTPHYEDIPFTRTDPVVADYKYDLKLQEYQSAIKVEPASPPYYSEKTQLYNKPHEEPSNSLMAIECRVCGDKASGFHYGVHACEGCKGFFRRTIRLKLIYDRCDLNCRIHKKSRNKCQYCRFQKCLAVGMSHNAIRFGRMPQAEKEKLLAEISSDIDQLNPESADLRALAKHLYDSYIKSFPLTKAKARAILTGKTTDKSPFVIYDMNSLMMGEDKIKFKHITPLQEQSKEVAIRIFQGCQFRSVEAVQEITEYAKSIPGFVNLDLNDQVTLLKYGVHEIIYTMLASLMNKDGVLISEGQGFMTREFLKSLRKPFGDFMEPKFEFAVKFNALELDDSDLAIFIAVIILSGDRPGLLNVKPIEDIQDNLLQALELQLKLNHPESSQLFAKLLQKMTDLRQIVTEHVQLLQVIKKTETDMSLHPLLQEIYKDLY
Procedure, shortened: as §1

[9] = system: ABCB11; assay: CLZD_ABCB11: Change in expression of ABCB11 (primary human hepatocytes); type: cell-based; settings: 24 hr
Method: This is a collection of multiplexed gene expression assays focused on Phase I and II xenobiotic metabolizing enzymes and transporters. Human primary cell cultures were treated with chemicals at 5 concentrations (0.004-40 [drawing 42] M) for 6, 24 and 48 hr. Concentration- and time-response profiles of chemicals were measured by the expression of key nuclear receptor target genes, activities of CYP1A enzymes (EROD), and cell morphology. Fourteen gene targets were monitored by quantitative nuclease protection assay including: six representative cytochrome P-450 genes, four hepatic transporters, three Phase II conjugating enzymes, and one endogenous metabolism gene involved in cholesterol synthesis. The target genes associated with nuclear receptor pathways are as follows: [drawing 43] and [drawing 44] with [drawing 45]; [drawing 46] , [drawing 47] , [drawing 48] , [drawing 49] , [drawing 50] and [drawing 51] with [drawing 52]; [drawing 53] , [drawing 54] , [drawing 55] and [drawing 56] with [drawing 57]; [drawing 58] with [drawing 59]; and [drawing 60] with [drawing 61] . Assays were run in primary human hepatocyte cultures by CellzDirect Invitrogen Inc. (Durham, NC), in collaboration with EPA.
Multiplexed Gene Expression in Human Primary Hepatocytes: This is a collection of multiplexed gene expression assays focused on Phase I and II metabolic enzymes and transporters. […] Fourteen gene targets were monitored by quantitative nuclease protection assay: six representative cytochrome P450 genes, four hepatic transporters, three Phase II conjugating enzymes, and one endogenous metabolism gene involved in cholesterol synthesis. Cells were exposed at 5 concentrations (0.004-40 µM) for 6, 24 or 48 hr. Gene targets are sentinels for five nuclear receptor signaling pathways: AhR, CAR, PXR, FXR, and PPARα. All gene are associated with nuclear receptor pathways: CYP1A1 and CYP1A2 with AHR; ABCB1, ABCG2, CYP2B6, CYP2C9, CYP2C19 and UGT1A1 with CAR; CYP3A4, GSTA2, SLCO1B1 and SULT2A1 with PXR; HMGCS2 with PPARA; and ABCB11 with FXR. […] Detailed description of the methods, data and analysis methods for this dataset will be presented in a separate publication.

[10] = system: Rat Liver; settings: chronic study, rat liver; ref ToxRefDB; cited from earlier work; remark: listed apart in the source
[11] = target: T6, PPARA (peroxisome proliferator-activated receptor alpha) (Homo sapiens, UniProt Q07869); assay: ATG_PPARa_TRANS: Factorial reporter gene assay (HepG2); type: cell-based; design: scale not given here
T6 construct: expressed in transfected cells; host or cells: HepG2
T6 sequence (Q07869 1-468): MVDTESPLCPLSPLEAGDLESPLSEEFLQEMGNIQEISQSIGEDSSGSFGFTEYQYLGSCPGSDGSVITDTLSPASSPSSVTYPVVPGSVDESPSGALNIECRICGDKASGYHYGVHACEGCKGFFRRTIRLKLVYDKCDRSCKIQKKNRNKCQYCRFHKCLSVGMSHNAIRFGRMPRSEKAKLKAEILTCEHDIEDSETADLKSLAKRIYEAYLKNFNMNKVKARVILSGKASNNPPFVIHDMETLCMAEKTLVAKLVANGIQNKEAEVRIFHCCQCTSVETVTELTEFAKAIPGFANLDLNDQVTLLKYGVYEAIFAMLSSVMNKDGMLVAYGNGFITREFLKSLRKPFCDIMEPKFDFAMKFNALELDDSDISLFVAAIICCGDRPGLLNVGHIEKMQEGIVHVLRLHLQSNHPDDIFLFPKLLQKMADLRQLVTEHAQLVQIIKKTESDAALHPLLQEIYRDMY
Method: as §2, §3

T4 sequence (P03372 whole entry): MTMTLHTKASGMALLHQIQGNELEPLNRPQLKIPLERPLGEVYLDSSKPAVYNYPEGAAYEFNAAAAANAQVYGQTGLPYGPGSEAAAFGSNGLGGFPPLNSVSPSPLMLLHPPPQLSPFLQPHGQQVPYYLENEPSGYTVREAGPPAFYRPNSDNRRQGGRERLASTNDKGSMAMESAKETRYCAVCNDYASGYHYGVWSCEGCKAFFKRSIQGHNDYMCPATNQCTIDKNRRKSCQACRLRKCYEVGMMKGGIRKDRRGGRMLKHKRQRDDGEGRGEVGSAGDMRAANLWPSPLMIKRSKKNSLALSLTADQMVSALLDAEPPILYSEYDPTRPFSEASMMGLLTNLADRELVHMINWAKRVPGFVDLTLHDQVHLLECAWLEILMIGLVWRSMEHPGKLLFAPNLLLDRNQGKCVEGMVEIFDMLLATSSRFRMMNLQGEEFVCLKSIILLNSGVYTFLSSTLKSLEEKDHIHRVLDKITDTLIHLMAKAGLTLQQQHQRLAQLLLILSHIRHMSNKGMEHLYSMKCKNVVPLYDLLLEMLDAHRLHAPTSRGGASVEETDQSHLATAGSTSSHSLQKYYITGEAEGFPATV
T1 sequence (P03372 whole entry, the tested form may be a part): as the sequence (P03372 whole entry) above

Compound | NCGC_ERalpha_Antagonist [1] | CHR_Rat_Liver_3_NeoplasticLesion [2] | ATG_PXRE_CIS ([3]; HepG2 reporter) | CHR_Rat_Liver_1_AnyLesion [4] | ATG_PBREM_CIS [5] | ATG_ERE_CIS [6] | ATG_ERa_TRANS [7] | ATG_PPARg_TRANS [8] | CLZD_ABCB11_24 [9] | CHR_Rat_Liver_2_PreneoplasticLesion [10] | ATG_PPARa_TRANS [11] | ATG_PXRE_CIS ([3]; HepG2)
CC(C)(C)c1ccc(CSc2cnn(C(C)(C)C)c(=O)c2Cl)cc1 [r272] | 5.155 | 0 | 5.444 | 0 | 5.699 | 4.959 | 4.367 | 4.854 | 5.168 | 0 | – | –
O=C(O)C(F)(F)C(F)(F)C(F)(F)C(F)(F)C(F)(F)C(F)(F)C(F)(F)F [r241] | – | – | – | – | – | – | – | – | – | – | 4.377 | 4.367
